Experimental data taken from US11370786B2, “GLS1 inhibitors for treating disease” (Board of Regents, The University of Texas System, priority 2014, dated 2022).

Key:
[1] = molecular target: GLS1 (purified recombinant human GAC) (Homo sapiens (Human), UniProt O94925); assay: GLS1 Enzymatic Activity Assay (dual-coupled glutamate oxidase/HRP Amplex UltraRed); format: biochemical
[2] = tested on: A549 cells; assay: Proliferation Assay (A549 viability, Cell Titer Fluor, 72 hours); format: cell-based; settings: Homo sapiens, A549, 72 h
Method: A549 cells were routinely maintained in RPMI 1640 media (Gibco catalog number 11875-093) supplemented with 10% dialyzed fetal bovine serum using a humidified incubator (37° C., 5% CO2 and ambient O2). In preparation for the viability assay, cells were inoculated into 384-well black CulturPlates (Perkin Elmer) at a density of 1000 cells/well in a volume of 40 uL. Following a 24-hour incubation at 37° C., 5% CO2 and ambient O2, cells were treated with compound ([…]) in a final DMSO concentration of 0.5% (v/v). The microplates were then incubated for 72 hours (37° C., 5% CO2 and ambient O2). Cell Titer Fluor (Promega) was subsequently added (10 uL of 6× reagent) and mixed for 15 minutes at room temperature. The plates were then incubated for 30 minutes (37° C., 5% CO2 and ambient O2) and fluorescence was subsequently read on the Perkin Elmer Envision plate reader. IC50 values were calculated using a four-parameter logistic curve fit.

GLS1 (purified recombinant human GAC), sequence (O94925 other isoform, or with tags, fused parts or gaps): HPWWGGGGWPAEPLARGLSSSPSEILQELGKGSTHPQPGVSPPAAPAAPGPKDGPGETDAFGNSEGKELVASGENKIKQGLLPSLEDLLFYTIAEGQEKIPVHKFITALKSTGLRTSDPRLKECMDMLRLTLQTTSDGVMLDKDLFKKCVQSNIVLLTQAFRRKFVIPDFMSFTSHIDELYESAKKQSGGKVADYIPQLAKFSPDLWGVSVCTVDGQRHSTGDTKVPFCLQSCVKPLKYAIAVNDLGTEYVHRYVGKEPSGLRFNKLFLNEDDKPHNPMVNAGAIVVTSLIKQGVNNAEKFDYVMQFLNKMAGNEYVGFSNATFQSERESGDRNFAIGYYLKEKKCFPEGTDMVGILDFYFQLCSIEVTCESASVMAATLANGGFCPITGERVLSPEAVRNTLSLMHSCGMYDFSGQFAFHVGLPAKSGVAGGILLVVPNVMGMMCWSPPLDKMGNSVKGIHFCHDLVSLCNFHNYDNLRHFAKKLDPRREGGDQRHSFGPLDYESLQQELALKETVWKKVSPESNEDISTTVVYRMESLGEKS

| SMILES | IC50 [1] [nM] | EC50 [2] [nM] |
| --- | --- | --- |
| CNC(=O)c1cn(CCCCc2ccc(NC(=O)Cc3cc(-c4cccc(Cl)c4OC(F)(F)F)ccn3)nn2)nn1 [Example 608, 1-(4-(6-(2-(4-(3-chloro-2-(trifluoromethoxy)phenyl)pyridin-2-yl)acetamido)pyridazin-3-yl)butyl)-N-methyl-1H-1,2,3-triazole-4-carboxamide] | < 100 | – |
| O=C(Cc1cncc(OC2CC(F)(F)C2)c1)Nc1ccc(CCCCn2cc(C(=O)NCc3ccccn3)nn2)nn1 [Example 231, 1-(4-(6-(2-(5-(3,3-difluorocyclobutoxy)pyridin-3-yl)acetamido)pyridazin-3-yl)butyl)-N-(pyridin-2-ylmethyl)-1H-1,2,3-triazole-4-carboxamide] | < 100 | – |
| O=C(Cc1cncc(OC2CC(F)(F)C2)c1)Nc1ccc(CCCCn2cc(C(=O)NCc3cc(C(F)(F)F)ccn3)nn2)nn1 [Example 230, 1-(4-(6-(2-(5-(3,3-difluorocyclobutoxy)pyridin-3-yl)acetamido)pyridazin-3-yl)butyl)-N-((4-(trifluoromethyl)pyridin-2-yl)methyl)-1H-1,2,3-triazole-4-carboxamide] | < 100 | – |
| CNC(=O)c1cn(CCCCc2ccc(NC(=O)Cc3cncc(OC4CC(F)(F)C4)c3)nn2)nn1 [Example 202, 1-(4-(6-(2-(5-(3,3-difluorocyclobutoxy)pyridin-3-yl)acetamido)pyridazin-3-yl)butyl)-N-methyl-1H-1,2,3-triazole-4-carboxamide] | < 100 | – |
| CNC(=O)c1cn(CCCCc2ccc(NC(=O)Cc3cc(C4CC4)ccn3)nn2)nn1 [Example 190, 1-(4-{6-[2-(4-cyclopropylpyridin-2-yl)acetamido]pyridazin-3-yl}butyl)-N-methyl-1H-1,2,3-triazole-4-carboxamide] | < 100 | – |
| O=C(Cc1ccccn1)Nc1ccc(CCCCn2cc(C(=O)NCc3cc(C(F)(F)F)ccn3)nn2)nn1 [Example 203, 1-(4-(6-(2-(pyridin-2-yl)acetamido)pyridazin-3-yl)butyl)-N-((4-(trifluoromethyl)pyridin-2-yl)methyl)-1H-1,2,3-triazole-4-carboxamide] | < 100 | – |
| CNC(=O)c1cn(CCCCc2ccc(NC(=O)Cc3ccc(Cl)nc3)nn2)nn1 [Example 544, 1-(4-{6-[2-(6-chloropyridin-3-yl)acetamido]pyridazin-3-yl}butyl)-N-methyl-1H-1,2,3-triazole-4-carboxamide] | < 100 | – |
| O=C(NCc1cccc(OC(F)(F)F)c1)c1cn(CCCCn2cc(C(=O)NCc3ccc(C(F)(F)F)cn3)nn2)nn1 [Example 81, 1-{4-[4-({[3-(trifluoromethoxy)phenyl]methyl}carbamoyl)-1H-1,2,3-triazol-1-yl]butyl}-N-{[5-(trifluoromethyl)pyridin-2-yl]methyl}-1H-1,2,3-triazole-4-carboxamide] | – | < 100 |
| CNC(=O)c1cn(CCCCc2ccc(NC(=O)Cc3cc(Br)ccn3)nn2)nn1 [Example 200, 1-(4-(6-(2-(4-bromopyridin-2-yl)acetamido)pyridazin-3-yl)butyl)-N-methyl-1H-1,2,3-triazole-4-carboxamide] | < 100 | – |

Next, values leading:

| IC50 [1] [nM] | EC50 [2] [nM] | SMILES |
| --- | --- | --- |
| < 100 | – | CNC(=O)c1cn(CC(F)CCc2ccc(NC(=O)Cc3cc(OC(C)C(F)(F)F)ccn3)nn2)nn1 (stereo not shown) [Example 266, 1-(2-fluoro-4-(6-(2-(4-((1,1,1-trifluoropropan-2-yl)oxy)pyridin-2-yl)acetamido)pyridazin-3-yl)butyl)-N-methyl-1H-1,2,3-triazole-4-carboxamide] |
| < 100 | – | CNC(=O)c1cn(CCCCc2ccc(NC(=O)Cc3cc(-c4cc(F)ccc4C)ccn3)nn2)nn1 [Example 609, 1-(4-(6-(2-(4-(5-fluoro-2-methylphenyl)pyridin-2-yl)acetamido)pyridazin-3-yl)butyl)-N-methyl-1H-1,2,3-triazole-4-carboxamide] |
| < 100 | – | CNC(=O)c1cn(CCCCc2ccc(NC(=O)Cc3cc(-c4cccc(OC(F)(F)F)c4F)ccn3)nn2)nn1 [Example 607, 1-(4-(6-(2-(4-(2-fluoro-3-(trifluoromethoxy)phenyl)pyridin-2-yl)acetamido)pyridazin-3-yl)butyl)-N-methyl-1H-1,2,3-triazole-4-carboxamide] |
| < 100 | – | CNC(=O)c1cn(CCCCc2ccc(NC(=O)Cc3cc(-c4ccc(F)cc4C(F)(F)F)ccn3)nn2)nn1 [Example 606, 1-(4-(6-(2-(4-(4-fluoro-2-(trifluoromethyl)phenyl)pyridin-2-yl)acetamido)pyridazin-3-yl)butyl)-N-methyl-1H-1,2,3-triazole-4-carboxamide] |
| – | < 100 | O=C(NCc1cc(OC(F)(F)F)ccc1F)c1cn(CCC(F)Cn2cc(C(=O)NCc3ccccn3)nn2)nn1 (stereo not shown) [Example 369, 1-{2-fluoro-4-[4-({[2-fluoro-5-(trifluoromethoxy)phenyl]methyl}carbamoyl)-1H-1,2,3-triazol-1-yl]butyl}-N-(pyridin-2-ylmethyl)-1H-1,2,3-triazole-4-carboxamide] |
| < 100 | – | CNC(=O)c1cn(CCCCc2ccc(NC(=O)Cc3cncc(Br)c3)nn2)nn1 [Example 546, 1-(4-{6-[2-(5-bromopyridin-3-yl)acetamido]pyridazin-3-yl}butyl)-N-methyl-1H-1,2,3-triazole-4-carboxamide] |
| < 100 | – | CNC(=O)c1cn(CCCCc2ccc(NC(=O)Cc3cc(Cl)ccn3)nn2)nn1 [Example 191, 1-(4-{6-[2-(4-chloropyridin-2-yl)acetamido]pyridazin-3-yl}butyl)-N-methyl-1H-1,2,3-triazole-4-carboxamide] |
